We go through 1 compound from BindingDB's records for doi:10.1021/jm021012t (F. Hoffmann-La Roche, 2003).

For data set [1], the target named is T1, P-glycoprotein (ABCB1, MDR1) (Homo sapiens, UniProt P08183). The data set can be described thus: TP_TRANSPORTER: inhibition of Calcein-AM efflux in MDR1-expressing LLC-PK1 cells. Particulars: probe calcein-AM.
The target in data set [2] is T1, P-glycoprotein (ABCB1, MDR1). Nature of the data set: Inhibition of P-glycoprotein, human L-MDR1 expressed in LLC-PK1 epithelial cells using calcein-AM polarisation assay. Particulars: LLC-PK1 epithelial cells expressing human MDR1 (L-MDR1), probe calcein-AM.

T1 sequence (P08183 whole entry): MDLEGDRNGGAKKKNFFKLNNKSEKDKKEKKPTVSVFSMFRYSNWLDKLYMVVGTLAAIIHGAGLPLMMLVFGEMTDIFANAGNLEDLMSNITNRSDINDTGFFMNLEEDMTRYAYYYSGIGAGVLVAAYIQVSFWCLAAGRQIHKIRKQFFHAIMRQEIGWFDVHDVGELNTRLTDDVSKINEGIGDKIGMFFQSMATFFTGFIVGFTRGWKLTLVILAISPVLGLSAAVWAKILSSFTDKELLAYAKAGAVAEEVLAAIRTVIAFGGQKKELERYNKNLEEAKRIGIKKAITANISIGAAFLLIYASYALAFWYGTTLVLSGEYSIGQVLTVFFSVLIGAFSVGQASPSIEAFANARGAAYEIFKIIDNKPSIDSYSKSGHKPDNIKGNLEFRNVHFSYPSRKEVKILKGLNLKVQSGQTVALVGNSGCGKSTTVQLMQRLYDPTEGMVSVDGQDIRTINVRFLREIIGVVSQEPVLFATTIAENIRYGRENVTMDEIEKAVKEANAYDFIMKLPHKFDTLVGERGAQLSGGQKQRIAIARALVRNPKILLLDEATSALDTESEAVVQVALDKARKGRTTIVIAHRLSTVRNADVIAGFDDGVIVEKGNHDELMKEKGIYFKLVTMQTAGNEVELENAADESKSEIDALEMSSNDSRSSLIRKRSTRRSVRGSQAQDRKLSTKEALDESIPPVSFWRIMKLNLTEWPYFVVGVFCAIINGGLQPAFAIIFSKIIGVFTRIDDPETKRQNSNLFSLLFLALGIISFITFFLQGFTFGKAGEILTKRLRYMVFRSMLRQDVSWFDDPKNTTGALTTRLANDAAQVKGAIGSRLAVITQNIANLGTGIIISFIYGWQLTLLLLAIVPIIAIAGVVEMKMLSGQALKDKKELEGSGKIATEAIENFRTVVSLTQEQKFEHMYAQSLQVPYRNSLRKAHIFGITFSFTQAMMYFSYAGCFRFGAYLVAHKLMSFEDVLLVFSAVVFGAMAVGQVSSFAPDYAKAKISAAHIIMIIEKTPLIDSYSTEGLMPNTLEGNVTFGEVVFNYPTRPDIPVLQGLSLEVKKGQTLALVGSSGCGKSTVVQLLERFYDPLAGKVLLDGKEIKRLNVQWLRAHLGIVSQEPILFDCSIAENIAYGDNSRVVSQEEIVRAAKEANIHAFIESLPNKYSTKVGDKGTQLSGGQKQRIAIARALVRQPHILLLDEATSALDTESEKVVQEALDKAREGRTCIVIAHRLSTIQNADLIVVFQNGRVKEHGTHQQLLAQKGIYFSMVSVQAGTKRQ

For `CC[C@H](C)[C@H]1O[C@]2(CC[C@@H]1C)C[C@@H]1C[C@@H](C/C=C(\C)[C@@H](O[C@H]3C[C@H](OC)[C@@H](O[C@H]4C[C@H](OC)[C@@H](O)[C@H](C)O4)[C@H](C)O3)[C@@H](C)/C=C/C=C3\CO[C@@H]4[C@H](O)C(C)=C[C@@H](C(=O)O1)[C@]34O)O2` [ABAMECTIN], the IC50 in data set [1] and in data set [2] was 100 nM each time.

The term IC50 denotes the point on the concentration scale where inhibition reaches its midpoint.
